Source: patent US11524078B2, “Water-soluble macromolecular derivative of Venetoclax” (Delta-Fly Pharma, Inc., priority 2020, dated 2022)

Tests used:
[1] = test system: human acute myelocytic leukemia cell line MV4-11; test: Cytotoxic effect, human acute myelocytic leukemia cell line MV4-11; assay type: cell-based; details: Opti-MEM reduced-serum medium used for compound of formula (I), read-out: IC50 (50% inhibition percentage)
Text: (§1) Concentration dependence of the cytotoxic effect of the compound of formula (I) and the compound of formula (II) was examined as described below.

[2] = test system: human acute myelocytic leukemia cell line OCI-AML-2; test: Mouse model of human acute myelocytic leukemia (OCI-AML-2), subcutaneous transplant; assay type: in vivo; details: OCI-AML-2 s.c. mice; (II) i.v. weekly x2 at 100-300 mg/kg; (I) oral daily two weeks 100 mg/kg
Method: The effects of the compounds on suppressing tumor growth were compared in mice groups by using mice models which were generated by transplanting a human acute myelocytic leukemia cell line OCI-AML-2 subcutaneously into mice. The mice groups were the following: a control group; groups whose mice received the compound of formula (II) intravenously once every week for two weeks at a dose of 100 mg/kg, 200 mg/kg, or 300 mg/kg; and a group whose mice received the compound of formula (I) orally every day for two weeks at a dose of 100 mg/kg (see FIG. 5(1)).

[3] = test system: human histiocytic lymphoma cell line U937; test: Mouse model of human histiocytic lymphoma (U937), subcutaneous transplant; assay type: in vivo; details: U937 s.c. mice; (II) i.v. weekly x2 at 200 or 300 mg/kg; (I) oral daily two weeks 100 mg/kg
Method: The effects of the compounds on suppressing tumor growth were compared in three groups by using mice models which were generated by transplanting a human histiocytic lymphoma cell line U937 subcutaneously into mice. The three groups were the following: a control group; a group whose mice received the compound of formula (II) intravenously at a frequency of once a week for two weeks at a dose of 200 mg/kg or 300 mg/kg; and a group whose mice received the compound of formula (I) orally every day for two weeks at a dose of 100 mg/kg.

[4] = test system: BAX; test: BAX expression in cytoplasm and mitochondrial fractions of MV4-11 cells; assay type: cell-based, human; details: (I) 0.1 and 1 μM, (II) 0.01, 0.1 and 1 μM, incubation five hours
Method: Human acute myelocytic leukemia cells MV4-11 were plated on a culture medium and cultured overnight. Then, the compound of formula (I) was added at concentrations of 0.1 μM and 1 μM, and the compound of formula (II) was added at concentrations of 0.01 μM, 0.1 μM, and 1 μM. After incubation for five hours, a cytoplasm fraction and a mitochondrial fraction were extracted and BAX expression was examined.

[5] = test system: cytochrome C; test: Cytochrome C release from mitochondria into cytoplasm in MV4-11 cells; assay type: cell-based, human; details: (I) 0.1 and 1 μM, (II) 0.01, 0.1 and 1 μM, incubation five hours
Method: In the above described Pharmaceutical Interview Form, “cytochrome C” that flowed out from mitochondria into cytoplasm is described as “pro-apoptotic protein.” Therefore, human acute myelocytic leukemia cells MV4-11 were plated on a culture medium and cultured overnight. Then, the compound of formula (I) was added at concentrations of 0.1 μM and 1 μM, and the compound of formula (II) was added at concentrations of 0.01 μM, 0.1 μM, and 1 μM. After incubation for five hours, a cytoplasm fraction and a mitochondrial fraction were extracted and cytochrome C release was examined.

[6] = test system: caspase; test: Caspase activity of MV4-11 cells; assay type: cell-based, human
Method: According to the above described Pharmaceutical Interview Form, cytochrome C that flowed out from mitochondria into cytoplasm activates caspase, thereby inducing apoptosis. Therefore, human acute myelocytic leukemia cells MV4-11 were plated on a culture medium and cultured overnight. Then, the compound of formula (I) was added at concentrations of 1 pM, 0.01 nM, 0.1 nM, 1 nM, 0.01 μM, 0.1 μM, and 1 μM; and the compound of formula (II) was added at concentrations of 1 pM, 0.01 nM, 0.1 nM, 1 nM, 0.01 μM, and 0.1 μM. After incubation for 24 hours, the culture medium was collected and caspase activity was examined by a conventional known technique.

[7] = Solubility in water of compounds; assay type: physicochemical; details: (I): 10 mg/mL in physiological saline containing 0.5% CMC, sonication, (II): 10 and 20 mg/mL in physiological saline at 40° C. to 50° C.
[8] = human protein; cited from earlier work
[9] = test system: human lung cancer cell line A549; test: Cytotoxic effect, human lung cancer cell line A549; details: A549, read-out: IC50 (50% inhibition percentage)
Text: as §1

[10] = test system: human pancreatic cancer cell line PANC-1; test: Cytotoxic effect, human pancreatic cancer cell line PANC-1; details: PANC-1, read-out: IC50 (50% inhibition percentage)
Text: as §1

With `CC1(C)CCC(CN2CCN(c3ccc(C(=O)NS(=O)(=O)c4ccc(NCC5CCOCC5)c([N+](=O)[O-])c4)c(Oc4cnc5[nH]ccc5c4)c3)CC2)=C(c2ccc(Cl)cc2)C1` [compound of formula (I), Venetoclax] the IC50 [1] was 160 nM, the “effect on suppressing weight change” value [2] was “suppressed weight change” and the “effect of suppressing tumor growth” value [3] was “no effect of suppressing growth of U937”. For the same compound, the “BAX in the cytoplasm fraction” value [4] was “concentration-dependent decrease of BAX in the cytoplasm fraction”, the “amount of cytochrome C released from mitochondria into cytoplasm” value [5] was “increased depending on the concentration” and the “caspase activity, concentration dependence” value ([6]; 1 pM to 1 μM (I), 1 pM to 0.1 μM (II), incubation 24 hours) was “increased depending on the concentration”. The “caspase activity at 0.1 μM, (I) versus (II)” value ([6]; concentration in terms of Venetoclax 0.1 μM, 24 hours) was “exactly the same caspase activity”, the “state of preparation in aqueous vehicle” value [7] was “uniform bright yellow opaque suspension” and the “binding percentage to protein” value [8] was at least 99.9%. For the same compound, the IC50 [9] was 990 nM and the IC50 [10] was 990 nM.
